Key:
trypsin = assay: Stability against cleavage by trypsin after 24 hrs by enzymatic digestion assay; assay type: ADME; conditions: human, read-out: Activity
[1] = biological target: Sodium-dependent noradrenaline transporter (Homo sapiens, UniProt P23975); assay: Displacement of [3H]nisoxetine from human NET in COS7 cells; assay type: cell-based, COS-7
Chain of Sodium-dependent noradrenaline transporter (P23975 whole entry): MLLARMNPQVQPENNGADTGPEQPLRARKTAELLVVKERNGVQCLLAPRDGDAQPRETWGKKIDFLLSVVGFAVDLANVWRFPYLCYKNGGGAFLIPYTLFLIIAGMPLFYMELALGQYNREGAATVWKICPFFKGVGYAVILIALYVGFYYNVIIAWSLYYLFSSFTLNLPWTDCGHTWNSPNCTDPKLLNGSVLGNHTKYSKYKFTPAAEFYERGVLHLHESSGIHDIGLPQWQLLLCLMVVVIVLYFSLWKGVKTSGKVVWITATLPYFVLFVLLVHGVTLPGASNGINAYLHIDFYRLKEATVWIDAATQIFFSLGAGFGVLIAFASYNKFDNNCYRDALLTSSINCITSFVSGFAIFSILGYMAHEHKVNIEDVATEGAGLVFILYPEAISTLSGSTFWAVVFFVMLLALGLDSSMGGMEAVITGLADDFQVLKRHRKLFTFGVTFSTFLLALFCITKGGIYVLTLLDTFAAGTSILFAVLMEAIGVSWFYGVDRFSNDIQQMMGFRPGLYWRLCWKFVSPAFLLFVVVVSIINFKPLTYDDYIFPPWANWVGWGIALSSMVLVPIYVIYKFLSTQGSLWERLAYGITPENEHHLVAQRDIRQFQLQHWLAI

Q: For `CC(C)C[C@@H]1NC(=O)[C@H](CCCCN)NC(=O)[C@H](Cc2ccc(O)cc2)NC(=O)CNC(=O)C2CSSCC(NC1=O)C(=O)N[C@@H](Cc1c[nH]cn1)C(=O)N1C[C@H](O)C[C@H]1C(=O)N[C@H](C(=O)O)CSSC[C@H](NC(=O)[C@@H](NC(=O)CNC(=O)[C@@H](N)CC(N)=O)C(C)C)C(=O)N2` (some centres not stated), which remaining at 24 h (trypsin) is on record?
A: < 55%

Q: And the EC50 [1]?
A: 1820 nM
